Data published in patent US11820766B2, “Monoacylglycerol lipase modulators” (Janssen Pharmaceutica NV, priority 2018, dated 2023).

Molecular target: T1, human MGL from HeLa cells (Homo sapiens, UniProt Q99685)
T1 construct: combining endogenously expressed MGL from HeLa cells with test compounds; endogenous in cells; host or cells: HeLa cells / cell homogenates
T1 sequence (Q99685 1-303): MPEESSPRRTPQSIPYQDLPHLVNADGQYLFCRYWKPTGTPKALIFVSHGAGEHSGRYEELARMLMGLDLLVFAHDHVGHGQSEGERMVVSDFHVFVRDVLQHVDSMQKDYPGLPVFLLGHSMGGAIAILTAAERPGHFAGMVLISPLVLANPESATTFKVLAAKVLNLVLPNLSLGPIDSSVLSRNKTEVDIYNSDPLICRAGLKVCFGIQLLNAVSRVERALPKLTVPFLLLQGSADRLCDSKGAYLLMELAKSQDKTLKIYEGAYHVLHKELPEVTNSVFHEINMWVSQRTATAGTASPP
Test: In vitro MGL activity assay: [glycerol-1,3-3H]-oleyl glycerol cleavage by MGL from HeLa cells
Format: biochemical
Details: 300 nM [Glycerol-1,3-3H]-oleyl glycerol, one hour incubation
Source text: MGL is the predominant hydrolase in HeLa cells/cell homogenates.

**Q.** Which IC50 does the source give for C[C@H]1c2nn(C)c(-c3cc(F)c(F)c(F)c3)c2CCN1C(=O)c1ccccc1-n1cncn1 [Example 279, [(7S)-2,7-Dimethyl-3-(3,4,5-trifluorophenyl)-5,7-dihydro-4H-pyrazolo[3,4-c]pyridin-6-yl]-[2-(1,2,4-triazol-1-yl)phenyl]methanone] here?
**A.** Its IC50 is 7.34 nM.
